Legend:
GSKβ = tested on: GSKβ; design: method as in PMID 23305709; conditions: cited from earlier work
GSK3α = tested on: GSK3α; design: method as in PMID 23305709; conditions: cited from earlier work
GSK3 [1] = conditions: six patients with evaluable samples; CD34+ and/or CD117+ cells
Protocol: Blood samples were collected at baseline, days 1, 8, and 30 and at the end of the study period. Specimens were processed only if ≥5% leukemic cells were present in the blood as assessed using morphologic criteria. […] Bone marrow was collected at baseline and end of study. Immunophenotyping was performed by multi-parameter flow cytometry using fluorochrome-labeled antibodies to CD11b, CD14, and CD15 as markers for monocytic and/or granulocytic differentiation ([19]–[22]). The stained samples were run on a BD Biosciences LSRII (San Jose, CA, USA) flow cytometer. Cells were concurrently stained for CD34, CD117, and CD38 for identification of the leukemic blast and stem cell populations (CD34+ CD38–). […] Phosphorylated Serine-9 GSK3β antibody was obtained from Cell Signaling Technologies (Beverly, MA, USA).

GSK3 [2] = conditions: cited from earlier work
[3] = Protocol: Lithium carbonate (lithium) 300 mg was administered orally three times a day (or two times daily for patients age ≥65 years) starting on day - 3 prior to cycle 1 and on day 1 of all subsequent cycles consisting of 28 days (Figure 1). The “lead-in” period prior to cycle 1 was designed to allow for correlative studies to investigate the effects of lithium on leukemic cell GSK3 activity and to ensure achievement of adequate serum lithium concentrations prior to tretinoin exposure. The target serum lithium concentration was the laboratory-defined therapeutic range of 0.6–1.0 mmol/L based on toxicity in humans for treatment of mood disorders. Dose adjustments were made based on the serum lithium concentration (Supplementary Figure 1). Dosing of tretinoin followed a “3+3” study design with three patients sequentially enrolled at each dose level ([13]). Tretinoin was administered orally at a dose of 22.5 mg/m^2/day (dose level 1) or 45 mg/m^2/day (dose level 2) in two divided doses, from days 1 to 7 and from days 15 to 21 of a 28-day cycle.
[4] = tested on: CD34+ CD38– AML stem cell population; conditions: tretinoin 0.5 μM, 6 days; in three samples
Description: In order to study the separate effects of GSK3 inhibition or tretinoin on AML stem cells, we used previously obtained cryopreserved blood samples from the Eastern Cooperative Oncology Group (ECOG) tumor repository of newly diagnosed and untreated AML patients (independent of this trial) to conduct in vitro studies. […] Cryopreserved cells were thawed and cultured in RPMI 1640 media (Hyclone) containing 10% fetal bovine serum (Sigma-Aldrich, St. Louis, MO, USA) and 1% final concentration penicillin and streptomycin. Amphotericin B (0.5 μg/ml) and ciprofloxacin (10 μg/ml) were added to help eliminate fungal and mycoplasma contamination in the cell culture. Cells were treated with SB415285 (10 μM) obtained from Tocris (Bristol, UK), a laboratory-grade GSK3 inhibitor which competitively binds to the ATP binding site of GSK3 ([23]), and tretinoin (0.5 μM). […] After 6 days, immunophenotyping for the CD34+ CD38– AML stem cell population was performed by flow cytometry.

Structure (SMILES): O=C1NC(=O)C(c2cnc3ccccn23)=C1c1cn2c3c(cc(F)cc13)CN(C(=O)N1CCCCC1)CC2 [LY2090314]
- IC50 (GSKβ): 0.9 nM
- IC50 (GSK3α): 1.5 nM

Structure (SMILES): O=C([O-])[O-].[Li+].[Li+] [lithium, Lithium carbonate]
- Median increase in pGSK3β, change in mean fluorescence intensity (MFI) from baseline (GSK3 [1]): 1,093 (range, 111–1,738)
- Lithium threshold concentration necessary in vivo to significantly inhibit GSK3 (GSK3 [2]): ~ 0.8 mmol/L
- Target serum lithium concentration (0.6–1.0 mmol/L) achieved ([3]; oral lithium carbonate 300 mg 2–3 times daily, dose adjusted): achieved at least once in all nine patients
- Serum lithium concentration at admission ([3]; patient with delirium (DLT), third week of treatment, dose level 1): 0.28 mmol/L

Structure (SMILES): CC1=C(/C=C/C(C)=C/C=C/C(C)=C/C(=O)O)C(C)(C)CCC1 [tretinoin]
- Reduction of the CD34+ CD38– population, tretinoin alone vs combination with SB415285 [4]: comparable reduction of the CD34+ CD38– population
